{
  "source": "patent US4059693A",
  "about": "“Analgesic action of substance P” (priority 1976, dated 1977)",
  "key": {"Male Swiss Webster mice": {"tested_on": "Male Swiss Webster mice", "conditions": "mouse, in vivo; for Reaction times with naloxone: ip"}, "mice [1]": {"tested_on": "mice", "experiment": "Hot plate analgesiometer in mice, intraperitoneal injection", "format": "in vivo", "description": "The drug was administered by intraperitoneal injection, employing the solution prepared according to Example 1. Three groups of mice, 5 animals per group, received a single injection ip of Substance P or vehicle alone. Mice weighed 30 grams each. Group 1: Substance P, 5 microgram per mouse ([…])([…]) Group 2: Substance P, 1 microgram per mouse (1 × 10^-6 g)(33.3 microgram/kg) Group 3: Vehicle alone\nOn the day before the animals were to be given the drug, each animal was tested on the hot plate analgesiometer for its reaction time (the time in seconds after placing on the hot plate until the animal jumps). The next day animals were given the injection and then tested on the analgesiometer at times of 30, 60, 90, 120 and 150 minutes after the injection. From the reaction times observed the control reaction time determined the previous day was subtracted. The reaction times given in the table below are the increase in reaction time (over the control value) due to the injection."}, "test animals": {"tested_on": "test animals", "experiment": "Time course of analgesia in test animals", "format": "in vivo", "from_the_text": "The dosage rate is selected so as to provide analgesia for a useful minimum period of time, while at the same time avoiding any impact of sudden severe lowering of blood pressure."}, "human blister base": {"tested_on": "human blister base", "conditions": "isolated, not pure compound per the patent; cited from earlier work"}, "mice [2]": {"tested_on": "mice", "experiment": "Reaction time in mice after intravenous injection in the tail vein", "format": "in vivo", "conditions": "50 ng iv tail vein, 90 minutes", "description": "50 ng of Substance P was administered peripherally to mice by intravenous injection in the tail vein. The mean reaction time at 90 minutes was 6.2 seconds."}, "anaesthetized rats": {"tested_on": "anaesthetized rats", "conditions": "injected into anaesthetized rats; cited from earlier work"}, "blood pressure": {"tested_on": "blood pressure", "conditions": "intravenous administration described in the prior art; cited from earlier work"}, "mammals": {"tested_on": "mammals", "experiment": "Analgesic potency, addictiveness and side-effects with morphine sulfate as standard of reference", "format": "in vivo"}, "brain opiate receptor": {"tested_on": "brain opiate receptor", "conditions": "in vitro; cited from earlier work"}, "[3]": {"conditions": "cited from earlier work"}},
  "data": [
    {"compound": "CN1CC[C@]23c4c5ccc(O)c4O[C@H]2[C@@H](O)C=C[C@H]3[C@H]1C5.O=S(=O)(O)O", "note": "[MS, morphine sulfate, reference compound]", "values": [
      {"measurement": "Reaction times with naloxone", "setting": "Male Swiss Webster mice", "result": "not increased during the first measurement, but gradually became longer"}
    ]},
    {"compound": "CSCC[C@H](NC(=O)[C@H](CC(C)C)NC(=O)CNC(=O)[C@H](Cc1ccccc1)NC(=O)[C@H](Cc1ccccc1)NC(=O)[C@H](CCC(N)=O)NC(=O)[C@H](CCC(N)=O)NC(=O)[C@@H]1CCCN1C(=O)[C@H](CCCCN)NC(=O)[C@@H]1CCCN1C(=O)[C@@H](N)CCCNC(=N)N)C(N)=O", "note": "[Substance P, H-Arg-Pro-Lys-Pro-Gln-Gln-Phe-Phe-Gly-Leu-Met-NH2]", "values": [
      {"measurement": "Reaction Time Over Controls", "setting": "mice [1]; Group 1: (5 × 10^-9 g)(0.167 microgram/kg) ip, 30 min", "result": "7.04 ± 1.91", "unit": "s"},
      {"measurement": "Reaction Time Over Controls", "setting": "mice [1]; Group 1: (5 × 10^-9 g)(0.167 microgram/kg) ip, 60 min", "result": "6.56 ± 2.4", "unit": "s"},
      {"measurement": "Reaction Time Over Controls", "setting": "mice [1]; Group 1: (5 × 10^-9 g)(0.167 microgram/kg) ip, 90 min", "result": "8.36 ± 3.2", "unit": "s"},
      {"measurement": "Reaction Time Over Controls", "setting": "mice [1]; Group 1: (5 × 10^-9 g)(0.167 microgram/kg) ip, 120 min", "result": "6.24 ± 1.4", "unit": "s"},
      {"measurement": "Reaction Time Over Controls", "setting": "mice [1]; Group 1: (5 × 10^-9 g)(0.167 microgram/kg) ip, 150 min", "result": "3.84 ± 2.12", "unit": "s"},
      {"measurement": "Reaction Time Over Controls", "setting": "mice [1]; Group 2: 1 microgram per mouse (33.3 microgram/kg) ip, 30 min", "result": "7.6 ± 2.68", "unit": "s"},
      {"measurement": "Reaction Time Over Controls", "setting": "mice [1]; Group 2: 1 microgram per mouse (33.3 microgram/kg) ip, 60 min", "result": "11.44 ± 3.49", "unit": "s"},
      {"measurement": "Reaction Time Over Controls", "setting": "mice [1]; Group 2: 1 microgram per mouse (33.3 microgram/kg) ip, 90 min", "result": "10.96 ± 1.33", "unit": "s"},
      {"measurement": "Reaction Time Over Controls", "setting": "mice [1]; Group 2: 1 microgram per mouse (33.3 microgram/kg) ip, 120 min", "result": "8.2 ± 3.18", "unit": "s"},
      {"measurement": "Reaction Time Over Controls", "setting": "mice [1]; Group 2: 1 microgram per mouse (33.3 microgram/kg) ip, 150 min", "result": "4.08 ± 1.26", "unit": "s"},
      {"measurement": "Increases in reaction times compared to the vehicle controls (Student t test)", "setting": "mice [1]; groups 1 and 2, 150 min", "result": "not statistically significant"},
      {"measurement": "Increases in reaction times compared to the vehicle controls (Student t test)", "setting": "mice [1]; groups 1 and 2, all times except 150 min", "result": "significant"},
      {"measurement": "Commencement of analgesia following administration", "setting": "test animals", "result": "20 to 30", "unit": "min"},
      {"measurement": "Time to peak effectiveness of analgesia", "setting": "test animals", "result": "about 1.5 hours"},
      {"measurement": "Reaction times compared to those of controls", "setting": "Male Swiss Webster mice", "result": "significantly increased"},
      {"measurement": "Reaction times with naloxone", "setting": "Male Swiss Webster mice", "result": "not increased during the first measurement, but gradually became longer"},
      {"measurement": "Algogen (pain-producing) activity", "setting": "human blister base", "result": "very potent algogen"},
      {"measurement": "Mean reaction time", "setting": "mice [2]", "result": 6.2, "unit": "s"},
      {"measurement": "Sialogogic activity", "setting": "anaesthetized rats", "result": "stimulated salivary secretion"},
      {"measurement": "Duration of sharp lowering of blood pressure", "setting": "blood pressure", "result": "≤ 7", "unit": "min"},
      {"measurement": "Addictiveness", "setting": "mammals; in vivo", "result": "nonaddictive"},
      {"measurement": "Side-effects", "setting": "mammals; in vivo", "result": "relatively free from significant side-effects"},
      {"measurement": "Potency as an analgesic relative to morphine sulfate", "setting": "mammals; morphine sulfate as standard of reference", "result": "about 450 times"}
    ]},
    {"compound": "Lipotropin C-Fragment: the entire 61-91 LPH fragment, extracted from pig pituitary (YGGFMTSEKSQTPLVTLFKNAIVKNAHKKGQ; Beta-endorphin; UniProt P01192 237-267, looked up)", "values": [
      {"measurement": "Potency relative to methionine enkephalin in inhibiting binding of naloxone and dihydromorphine", "setting": "brain opiate receptor", "result": "approximately thirty"}
    ]},
    {"compound": "Tyr-Gly-Gly-Phe-Met [Met-Enk]", "values": [
      {"measurement": "Analgesic activity in vivo", "setting": "[3]", "result": "does not exhibit significant analgesic activity in vivo"}
    ]}
  ]
}
